Legend:
[1] = biological target: T1, hTRPA1 (Homo sapiens, UniProt O75762, K186N); assay: TRPA1 patch clamp (perforated patch, AITC-activated current); format: cell-based
T1 construct: expressed in transfected cells; host or cells: HEK293/TREx (Invitrogen), induced with tetracycline
From the text: Patch clamp experiments permit the detection of currents through the TRPA1 channel in the cell line described above. To permit recording of current at a stable level and prevent the “rundown” observed by other labs, it is necessary to use the perforated patch technique, which prevents dialysis of the cytoplasm with the pipette solution. In normal whole-cell patch clamp recordings, a glass electrode is brought into contact with a single cell and a high-resistance (gigaohm) seal is established with the cell membrane. The membrane is then ruptured to achieve the whole-cell configuration, permitting control of the voltage of the cell membrane and measurement of currents flowing across the membrane using the amplifier attached to the electrode and resulting in the replacement of cytoplasm with the pipette solution. In contrast, in the perforated patch mode, an antibiotic, amphotericin, is present in the pipette solution and diffuses into contact with the cell after the seal is achieved, over the course of several minutes. The amphotericin forms ion-permeable pores in the membrane under the pipette, permitting passage of some ions but maintaining most native cytosolic components. A perfusion system permits control of the extracellular solution, including the addition of blockers and activators of the current. The current can be activated by addition of 5 μM AITC to the solution. […] In some cases, cells were grown in low density overnight on glass coverslips. Patch clamp recordings were made in the whole-cell mode with a holding potential of −40 mV. Every 5 seconds, a voltage ramp was applied from −120 to +100 mV, 400 ms in duration. Currents elicited were quantified at −80 mV and +80 mV. […] The external solution consisted of 150 mM NaCl, 4.5 mM KCl, 3 mM MgCl2, 10 mM HEPES, […], 1 mM EGTA, pH 7.4. Upon addition of AITC, TRPA1 current was induced only in TRPA1-expressing cells and not in parental HEK293 TREx cells. Removal of the AITC stimulus causes most of the current to go away. Potential blockers were tested for ability to block both inward and outward currents in the continued presence of AITC.

[2] = biological target: T1, hTRPA1; assay: High throughput Ca2+ fluorescence (Fluo4) assay, AITC stimulation; format: cell-based
Summary of the method: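 Tetracycline-induced HEK293/TREx cells loaded with 1 μM Fluo4/AM for 60 min at room temperature. Compound added for 2 min after a 4-frame baseline, then AITC; fluorescence followed ~3 min.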

[3] = Table 2, inward current, read-out: hTRPA1 Patch Inwd IC50
[4] = Table 2, read-out: hTRPA1 Fluor IC50
[5] = Table 1, read-out: hTRPA1 Patch IC50
[6] = Table 1, read-out: hTRPA1 Fluo4 IC50

T1 sequence (O75762 whole entry K186N): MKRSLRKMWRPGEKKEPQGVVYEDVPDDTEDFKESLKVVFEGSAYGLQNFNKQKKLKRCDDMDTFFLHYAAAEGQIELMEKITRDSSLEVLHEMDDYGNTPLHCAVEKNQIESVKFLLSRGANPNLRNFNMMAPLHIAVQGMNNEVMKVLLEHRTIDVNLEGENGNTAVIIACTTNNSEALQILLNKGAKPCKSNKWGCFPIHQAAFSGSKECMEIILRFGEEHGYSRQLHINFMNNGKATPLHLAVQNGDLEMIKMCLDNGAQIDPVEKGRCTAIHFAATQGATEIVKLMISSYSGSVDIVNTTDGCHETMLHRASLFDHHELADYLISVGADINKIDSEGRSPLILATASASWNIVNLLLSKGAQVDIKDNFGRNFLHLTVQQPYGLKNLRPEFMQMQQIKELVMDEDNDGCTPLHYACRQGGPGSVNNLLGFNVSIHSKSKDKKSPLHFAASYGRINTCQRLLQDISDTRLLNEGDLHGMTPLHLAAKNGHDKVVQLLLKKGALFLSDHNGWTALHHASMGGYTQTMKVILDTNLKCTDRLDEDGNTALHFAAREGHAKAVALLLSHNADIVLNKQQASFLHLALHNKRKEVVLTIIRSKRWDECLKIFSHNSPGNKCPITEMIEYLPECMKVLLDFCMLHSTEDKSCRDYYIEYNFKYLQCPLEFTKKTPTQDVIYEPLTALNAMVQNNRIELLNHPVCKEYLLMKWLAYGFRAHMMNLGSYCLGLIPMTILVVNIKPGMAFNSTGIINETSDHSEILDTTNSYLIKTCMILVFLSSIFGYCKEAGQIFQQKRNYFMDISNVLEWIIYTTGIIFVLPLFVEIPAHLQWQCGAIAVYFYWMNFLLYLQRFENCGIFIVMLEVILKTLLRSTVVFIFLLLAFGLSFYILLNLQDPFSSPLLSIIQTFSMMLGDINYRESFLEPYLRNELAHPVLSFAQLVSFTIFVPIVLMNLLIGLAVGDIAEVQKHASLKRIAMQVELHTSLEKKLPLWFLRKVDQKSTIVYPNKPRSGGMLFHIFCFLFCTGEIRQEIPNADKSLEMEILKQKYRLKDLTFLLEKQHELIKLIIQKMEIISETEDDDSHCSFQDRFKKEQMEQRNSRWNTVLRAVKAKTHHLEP

SMILES | IC50 [1, 3] | IC50 [2, 4] | other results
Cn1c(=O)c2c(ncn2CC(=O)Nc2ccc(Oc3ccccc3)cc2)n(C)c1=O [Compound 262] | ≤ 500 nM | ≤ 5 µM | –
Cn1c(=O)c2c(ncn2CC(=O)Nc2ccc3ccccc3c2)n(C)c1=O [Compound 213] | > 10000 nM | ≤ 10 µM | –
Cc1ccccc1CNC(=O)Cn1cnc2c1c(=O)n(C)c(=O)n2C [Compound 313] | ≤ 10000 nM | > 10 µM | –
Cn1c(=O)c2c(ncn2CC(=O)Nc2nccs2)n(C)c1=O [Compound 225] | > 10000 nM | > 10 µM | –
Cn1c(=O)c2c(ncn2CC(=O)Nc2ccc(Cl)cc2)n(C)c1=O [Compound 251] | ≤ 1000 nM | ≤ 5 µM | –
CC(C(=O)Nc1ccc(Cl)cc1)n1cnc2c1c(=O)n(C)c(=O)n2C (stereo not drawn) [Compound 300] | ≤ 1000 nM | ≤ 5 µM | –
Cn1c(=O)c2c(ncn2CC(=O)Nc2ccc(S(N)(=O)=O)cc2)n(C)c1=O [Compound 228] | > 10000 nM | > 10 µM | –
COC(=O)C1=C(C)N(C)C(=O)NC1c1cc(O)ccc1Br (stereo not drawn) | – | – | IC50 [1, 5]: ≤ 5000 nM; IC50 [2, 6]: ≤ 5 µM
CCCCc1ccc2nc(NC(=O)Cn3cnc4c3c(=O)n(C)c(=O)n4C)sc2c1 [Compound 269] | ≤ 1000 nM | ≤ 5 µM | –
CCOC(=O)C1=C(c2ccccc2)NC(=S)NC1c1cc(C)ccc1C (stereo not drawn) | – | – | IC50 [1, 5]: > 10000 nM; IC50 [2, 6]: > 10 µM
CCOC(=O)C1=C(C)NC(=S)NC1c1cccc(O)c1 (stereo not drawn) | – | – | IC50 [1, 5]: > 10000 nM; IC50 [2, 6]: ≤ 10 µM
COC(=O)C1=C(C)N(C)C(=O)NC1c1ccc(O)c(Cl)c1 (stereo not drawn) | – | – | IC50 [1, 5]: > 10000 nM; IC50 [2, 6]: ≤ 5 µM
COC(=O)C1=C(c2ccccc2)NC(=S)NC1c1ccccc1 (stereo not drawn) | – | – | IC50 [1, 5]: ≤ 5000 nM; IC50 [2, 6]: ≤ 5 µM
Cn1c(=O)c2c(ncn2CC(=O)Nc2nc(-c3ccccc3)cs2)n(C)c1=O [Compound 230] | ≤ 10000 nM | ≤ 10 µM | –
COc1ccc(NC(=O)Cn2cnc3c2c(=O)n(C)c(=O)n3C)cc1 [Compound 207] | ≤ 10000 nM | > 10 µM | –
Cn1c(=O)c2c(ncn2CC(=O)Nc2ccc3c(c2)OCO3)n(C)c1=O [Compound 237] | ≤ 10000 nM | > 10 µM | –
CCOC(=O)C1=C(C)NC(=S)NC1c1ccccc1C (stereo not drawn) | – | – | IC50 [1, 5]: ≤ 5000 nM; IC50 [2, 6]: ≤ 5 µM
CCc1ccc(NC(=O)C(C)n2cnc3c2c(=O)n(C)c(=O)n3C)cc1 (stereo not drawn) [Compound 299] | ≤ 10000 nM | ≤ 5 µM | –
Cn1c(=O)c2c(ncn2CC(=O)Nc2ccccc2N2CCCC2)n(C)c1=O [Compound 350] | > 10000 nM | > 10 µM | –
COC(=O)C1=C(C)N(C)C(=O)NC1c1cccc(Br)c1 (stereo not drawn) | – | – | IC50 [1, 5]: > 10000 nM; IC50 [2, 6]: ≤ 5 µM
Cn1c(=O)c2c(ncn2CC(=O)Nc2ccc(OCc3ccccc3)cc2)n(C)c1=O [Compound 224] | ≤ 5000 nM | ≤ 1 µM | –
Cn1c(=O)c2c(ncn2CC(=O)Nc2ccc(F)cc2)n(C)c1=O [Compound 209] | > 10000 nM | ≤ 10 µM | –

SMILES | IC50 [1, 3] | IC50 [2, 4] | other results
Cn1c(=O)c2c(ncn2CC(=O)Nc2ccc(F)c(Cl)c2)n(C)c1=O [Compound 281] | ≤ 10000 nM | ≤ 5 µM | –
Cn1c(=O)c2c(ncn2CC(=O)Nc2ccc(C34CC5CC(CC(C5)C3)C4)cc2)n(C)c1=O [Compound 264] | ≤ 500 nM | ≤ 5 µM | –
Cn1c(=O)c2c(ncn2CC(=O)NCCc2ccc(Cl)cc2)n(C)c1=O [Compound 268, N-[2-(4-Chlorophenyl)-ethyl]-2-(1,3-dimethyl-2,6-dioxo-1,2,3,6-tetrahydro-purin-7-yl)-acetamide] | ≤ 1000 nM | > 10 µM | –
CC(C)Cc1nnc(NC(=O)Cn2cnc3c2c(=O)n(C)c(=O)n3C)s1 [Compound 235] | ≤ 10000 nM | > 10 µM | –
CN(C)c1ccc(CCNC(=O)Cn2cnc3c2c(=O)n(C)c(=O)n3C)cc1 [Compound 397, N-[2-(4-Dimethylaminophenyl)-ethyl]-2-(1,3-dimethyl-2,6-dioxo-1,2,3,6-tetrahydropurin-7-yl)-acetamide] | ≤ 5000 nM | – | –
Cn1c(=O)c2c(ncn2CC(=O)Nc2ccccc2C2CCCC2)n(C)c1=O [Compound 398, N-(2-cyclopentylphenyl)-2-(1,3-dimethyl-2,6-dioxo-1,2,3,6-tetrahydropurin-7-yl)acetamide] | ≤ 10000 nM | – | –
CC(C)c1ccc(N(C)C(=O)Cn2cnc3c2c(=O)n(C)c(=O)n3C)cc1 [Compound 393, 2-(1,3-dimethyl-2,6-dioxo-1,2,3,6-tetrahydropurin-7-yl)-N-(4-isopropylphenyl)-N-methylacetamide] | > 10000 nM | – | –
CC(C)c1ccc(NC(=O)Cn2cnc3c2c(=O)[nH]c(=O)n3C)cc1 [Compound 388, N-(4-isopropylphenyl)-2-(3-methyl-2,6-dioxo-1,2,3,6-tetrahydropurin-7-yl)acetamide] | > 10000 nM | – | –
Cn1c(=O)c2c(ncn2CC(=O)Nc2ccc(C3CCCC3)cc2)n(C)c1=O [Compound 395, N-(4-cyclopentylphenyl)-2-(1,3-dimethyl-2,6-dioxo-1,2,3,6-tetrahydropurin-7-yl)acetamide] | ≤ 500 nM | – | –
Cn1c(=O)c2c(ncn2CC(=O)NCCc2ccccc2F)n(C)c1=O [Compound 404, N-(2-fluorophenethyl)-2-(1,3-dimethyl-2,6-dioxo-1,2,3,6-tetrahydropurin-7-yl)acetamide] | ≤ 1000 nM | – | –
CC(C)c1ccc(NC(=O)C(C)(C)n2cnc3c2c(=O)n(C)c(=O)n3C)cc1 [Compound 387, 2-(1,3-dimethyl-2,6-dioxo-1,2,3,6-tetrahydropurin-7-yl)-N-(4-isopropylphenyl)-2-methylpropanamide] | > 10000 nM | – | –
Cc1ccccc1CCNC(=O)Cn1cnc2c1c(=O)n(C)c(=O)n2C [Compound 406, N-(2-methylphenethyl)-2-(1,3-dimethyl-2,6-dioxo-1,2,3,6-tetrahydropurin-7-yl)acetamide] | ≤ 10000 nM | – | –
Cn1c(=O)c2c(ncn2CC(=O)Nc2ccc(C(C)(C)O)cc2)n(C)c1=O [Compound 402, 2-(1,3-dimethyl-2,6-dioxo-1,2,3,6-tetrahydropurin-7-yl)-N-(4-(2-hydroxypropan-2-yl)phenyl)acetamide] | ≤ 5000 nM | – | –
COc1cccc(CCNC(=O)Cn2cnc3c2c(=O)n(C)c(=O)n3C)c1 [Compound 408, 2-(1,3-Dimethyl-2,6-dioxo-1,2,3,6-tetrahydropurin-7-yl)-N-[2-(3-methoxy-phenyl)-ethyl]acetamide] | ≤ 5000 nM | – | –
CCOC(=O)C1=C(c2ccccc2)NC(=S)NC1c1cc(O)ccc1Br (stereo not drawn) [drawing 264] | – | – | IC50 [1, 5]: ≤ 1000 nM
COc1ccccc1CCNC(=O)Cn1cnc2c1c(=O)n(C)c(=O)n2C [Compound 403, N-(2-methoxyphenethyl)-2-(1,3-dimethyl-2,6-dioxo-1,2,3,6-tetrahydropurin-7-yl)acetamide] | > 10000 nM | – | –
Cn1c(=O)c2c(ncn2CC(=O)NCCc2ccc(S(N)(=O)=O)cc2)n(C)c1=O [Compound 389] | > 10000 nM | – | –
Cn1c(=O)c2c(ncn2CC(=O)NCc2ccccc2Cl)n(C)c1=O [Compound 236] | > 10000 nM | – | –
Cn1c(=O)[nH]c(=O)c2c1ncn2CC(=O)Nc1ccc(C2CCCC2)cc1 [Compound 394, N-(4-cyclopentylphenyl)-2-(3-methyl-2,6-dioxo-1,2,3,6-tetrahydropurin-7-yl)acetamide] | ≤ 5000 nM | – | –
Cc1ccc(CCNC(=O)Cn2cnc3c2c(=O)n(C)c(=O)n3C)cc1 [Compound 400, 2-(1,3-Dimethyl-2,6-dioxo-1,2,3,6-tetrahydro-purin-7-yl)-N-(2-p-tolyl-ethyl)-acetamide] | ≤ 1000 nM | – | –
COc1ccc(CCNC(=O)Cn2cnc3c2c(=O)n(C)c(=O)n3C)cc1OC [Compound 390] | – | – | IC50 ([1]; hTRPA1 Patch Inwd IC50 (nM), Table 2, inward current): ≤ 10000 nM

Reference: patent US7671061B2, “Methods and compositions for treating pain” (Hydra Biosciences, Inc., priority 2005, dated 2010)
